The assay relates to NBD1/3D. The assay can be described thus: Aggregation analysis using differential static light scattering (DSLS), NBD1 thermal stability. The format is binding, Human. The conditions noted are these: ΔTagg versus DMSO control; compound at 100 μM. The method, boiled down: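 Thermal stabilisation reported as ΔTagg, i.e. aggregation temperature relative to averaged DMSO wells. Tagg came from the inflection of differential static light scattering imaged 25–70 °C while NBD1 (0.2 mg/ml, Tris pH 7.6 buffer containing ATP, MgCl2, DTT, glycerol) was ramped 1 °C/min.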

This note sets out measurements from US20240279220A1, “INDOLE COMPOUNDS AND METHODS OF USE” (Genzyme Corporation, priority 2021, published 2024).

As to `Cc1c(Oc2ccc(F)c(-c3nc(Cc4cccc(CCC(=O)O)c4)c[nH]3)c2)ccc2[nH]ccc12` [Example 109, 3-(3-((2-(2-fluoro-5-((4-methyl-1H-indol-5-yl)oxy)phenyl)-1H-imidazol-4-yl)methyl)phenyl)propanoic acid], the “DSLS NBD1/3D Human Stability delta-T (° C.) @ 100 (μM)” value (from here on “DSLS NBD1/3D Human Stability delta-T”) is “B (B: 5-10° C.)”. With `O=C(O)CCc1cccc(Cc2cnc(-c3cc(Oc4c(F)cc5[nH]ccc5c4F)ccc3F)[nH]2)c1Cl` [Example 110, 3-(2-chloro-3-((2-(5-((4,6-difluoro-1H-indol-5-yl)oxy)-2-fluorophenyl)-1H-imidazol-5-yl)methyl)phenyl)propanoic acid], the “DSLS NBD1/3D Human Stability delta-T” value was “B (B: 5-10° C.)”. In the case of `O=C(O)CCc1cccc(Cc2c[nH]c(-c3cc(Oc4c(F)cc5[nH]ccc5c4Cl)ccc3F)n2)c1F` [Example 111, 3-(3-((2-(5-((4-chloro-6-fluoro-1H-indol-5-yl)oxy)-2-fluorophenyl)-1H-imidazol-4-yl)methyl)-2-fluorophenyl)propanoic acid] it was “B (B: 5-10° C.)”; in that of `Cc1c(Oc2ccc(F)c(-c3nc(Cc4cccc(CCC(=O)O)c4F)c[nH]3)c2)c(F)c(F)c2[nH]ccc12` [Example 112, 3-(3-((2-(5-((6,7-difluoro-4-methyl-1H-indol-5-yl)oxy)-2-fluorophenyl)-1H-imidazol-4-yl)methyl)-2-fluorophenyl)propanoic acid], “B (B: 5-10° C.)”; in that of `O=C(O)CCc1cc(F)cc(Cc2cnc(-c3cc(Oc4c(F)cc5[nH]ccc5c4CC(F)(F)F)ccc3F)[nH]2)c1` [Example 113, 3-(3-fluoro-5-((2-(2-fluoro-5-((6-fluoro-4-(2,2,2-trifluoroethyl)-1H-indol-5-yl)oxy)phenyl)-1H-imidazol-5-yl)methyl)phenyl)propanoic acid], “B (B: 5-10° C.)”. In the case of `O=C(O)CCc1cc(F)cc(Cc2c[nH]c(-c3cc(Oc4c(F)cc5[nH]ccc5c4F)ccc3F)n2)c1` [Example 114, 3-(3-((2-(5-((4,6-difluoro-1H-indol-5-yl)oxy)-2-fluorophenyl)-1H-imidazol-4-yl)methyl)-5-fluorophenyl)propanoic acid] it was “B (B: 5-10° C.)”; in that of `Cc1c(Oc2ccc(F)c(-c3ncc(Cc4cccc(CCC(=O)O)c4)[nH]3)c2)c(F)cc2[nH]ccc12` [Example 115, 3-(3-((2-(2-fluoro-5-((6-fluoro-4-methyl-1H-indol-5-yl)oxy)phenyl)-1H-imidazol-5-yl)methyl)phenyl)propanoic acid], “B (B: 5-10° C.)”.

As for `Cc1c(Oc2ccc(F)c(-c3ncc(Cc4cccc(CCC(=O)O)c4F)[nH]3)c2)ccc2[nH]ccc12` [Example 116, 3-(2-fluoro-3-((2-(2-fluoro-5-((4-methyl-1H-indol-5-yl)oxy)phenyl)-1H-imidazol-5-yl)methyl)phenyl)propanoic acid], the “DSLS NBD1/3D Human Stability delta-T” value is listed as “B (B: 5-10° C.)”. As to `O=C(O)CCc1cccc(Cc2c[nH]c(-c3cc(Oc4c(F)cc5[nH]ccc5c4CC(F)F)ccc3F)n2)c1` [Example 117, 3-(3-((2-(5-((4-(2,2-difluoroethyl)-6-fluoro-1H-indol-5-yl)oxy)-2-fluorophenyl)-1H-imidazol-4-yl)methyl)phenyl)propanoic acid], the “DSLS NBD1/3D Human Stability delta-T” value is “B (B: 5-10° C.)”. Then `N#Cc1c(CCC(=O)O)cccc1Cc1cnc(-c2cc(Oc3c(F)cc4[nH]ccc4c3F)ccc2F)[nH]1` [Example 122, 3-(2-cyano-3-((2-(5-((4,6-difluoro-1H-indol-5-yl)oxy)-2-fluorophenyl)-1H-imidazol-5-yl)methyl)phenyl)propanoic acid], with “B (B: 5-10° C.)”; and `NC(=O)CCc1cccc(Cc2c[nH]c(-c3cc(Oc4c(F)cc5[nH]ccc5c4F)ccc3F)n2)c1` [Example 127, 3-(3-((2-(5-((4,6-Difluoro-1H-indol-5-yl)oxy)-2-fluorophenyl)-1H-imidazol-4-yl)methyl)phenyl)propanamide], with “C (C: ≤5° C.)”; and `NCc1c(CCC(=O)O)cccc1Cc1cnc(-c2cc(Oc3c(F)cc4[nH]ccc4c3F)ccc2F)[nH]1` [Example 141, 3-(2-(Aminomethyl)-3-((2-(5-((4,6-difluoro-1H-indol-5-yl)oxy)-2-fluorophenyl)-1H-imidazol-5-yl)methyl)phenyl)propanoic acid], with “C (C: ≤5° C.)”.

For `CC1CC(c2cccc(CCC(=O)O)c2)(c2cnc(-c3cc(Oc4c(F)cc5[nH]ccc5c4F)ccc3F)[nH]2)CC(C)O1` (centres unmarked) [Example 142, 3-(3-(4-(2-(5-((4,6-Difluoro-1H-indol-5-yl)oxy)-2-fluorophenyl)-1H-imidazol-5-yl)-2,6-dimethyltetrahydro-2H-pyran-4-yl)phenyl)propanoic acid], the “DSLS NBD1/3D Human Stability delta-T” value is reported as “A (A: T ≥ 10° C.)”. With `O=C(O)CCc1cccc(C2(c3cnc(-c4cc(Oc5c(F)cc6[nH]ccc6c5F)ccc4F)[nH]3)CC2)c1` [Example 143, 3-(3-(1-(2-(5-((4,6-difluoro-1H-indol-5-yl)oxy)-2-fluorophenyl)-1H-imidazol-5-yl)cyclopropyl)phenyl)propanoic acid], the “DSLS NBD1/3D Human Stability delta-T” value is recorded as “B (B: 5-10° C.)”.

As for `Cc1c(Oc2ccc(F)c(-c3ncc(C(C)(C)c4cccc(CCC(=O)O)c4)[nH]3)c2)c(F)cc2[nH]ccc12` [Example 144, 3-(3-(2-(2-(2-fluoro-5-((6-fluoro-4-methyl-1H-indol-5-yl)oxy)phenyl)-1H-imidazol-5-yl)propan-2-yl)phenyl)propanoic acid], the “DSLS NBD1/3D Human Stability delta-T” value was “B (B: 5-10° C.)”.

With `CC(C)(c1cccc(CCC(=O)O)c1)c1cnc(-c2cc(Oc3c(F)cc4[nH]ccc4c3F)ccc2F)[nH]1` [Example 145, 3-(3-(2-(2-(5-((4,6-difluoro-1H-indol-5-yl)oxy)-2-fluorophenyl)-1H-imidazol-5-yl)propan-2-yl)phenyl)propanoic acid], the “DSLS NBD1/3D Human Stability delta-T” value is given as “B (B: 5-10° C.)”. Then `Cc1c(Oc2ccc(F)c(-c3ncc(C4(c5cccc(CCC(=O)O)c5)CCCC4)[nH]3)c2)c(F)cc2[nH]ccc12` [Example 146, 3-(3-(1-(2-(2-fluoro-5-((6-fluoro-4-methyl-1H-indol-5-yl)oxy)phenyl)-1H-imidazol-5-yl)cyclopentyl)phenyl)propanoic acid], with “B (B: 5-10° C.)”; and `Cc1c(Oc2ccc(F)c(-c3nc(C4(c5cccc(CCC(=O)O)c5)CCCCC4)c[nH]3)c2)c(F)cc2[nH]ccc12` [Example 147, 3-(3-(1-(2-(2-fluoro-5-((6-fluoro-4-methyl-1H-indol-5-yl)oxy)phenyl)-1H-imidazol-4-yl)cyclohexyl)phenyl)propanoic acid], with “B (B: 5-10° C.)”; and `Cc1c(Oc2ccc(F)c(-c3ncc(C4(c5cccc(CCC(=O)O)c5)CCOCC4)[nH]3)c2)c(F)cc2[nH]ccc12` [Example 148, 3-(3-(4-(2-(2-fluoro-5-((6-fluoro-4-methyl-1H-indol-5-yl)oxy)phenyl)-1H-imidazol-5-yl)tetrahydro-2H-pyran-4-yl)phenyl)propanoic acid], with “A (A: T ≥ 10° C.)”. Turning to `Cc1c(Oc2ccc(F)c(-c3ncc(C4(c5cccc(CCC(=O)O)c5)CC(C)OC(C)C4)[nH]3)c2)c(F)cc2[nH]ccc12` (centres unmarked) [Example 149, 3-(3-(4-(2-(2-fluoro-5-((6-fluoro-4-methyl-1H-indol-5-yl)oxy)phenyl)-1H-imidazol-5-yl)-2,6-dimethyltetrahydro-2H-pyran-4-yl)phenyl)propanoic acid], the “DSLS NBD1/3D Human Stability delta-T” value is “B (B: 5-10° C.)”. In the case of `O=C(O)CCc1cccc(C2(c3cnc(-c4cc(Oc5c(F)cc6[nH]ccc6c5F)ccc4F)[nH]3)CCOC2)c1` (centres unmarked) [Example 150, 3-(3-(3-(2-(5-((4,6-difluoro-1H-indol-5-yl)oxy)-2-fluorophenyl)-1H-imidazol-5-yl)tetrahydrofuran-3-yl)phenyl)propanoic acid] it was “A (A: T ≥ 10° C.)”; in that of `Cc1c(Oc2ccc(F)c(-c3ncc(C4(c5cccc(CCC(=O)O)c5)CCOC4)[nH]3)c2)c(F)cc2[nH]ccc12` (centres unmarked) [Example 153, 3-(3-(3-(2-(2-fluoro-5-((6-fluoro-4-methyl-1H-indol-5-yl)oxy)phenyl)-1H-imidazol-5-yl)tetrahydrofuran-3-yl)phenyl)propanoic acid], “A (A: T ≥ 10° C.)”; in that of `Cc1c(Oc2ccc(F)c(-c3ncc(C4(c5cc(F)cc(CCC(=O)O)c5)CC4)[nH]3)c2)c(F)cc2[nH]ccc12` [Example 156, 3-(3-fluoro-5-(1-(2-(2-fluoro-5-((6-fluoro-4-methyl-1H-indol-5-yl)oxy)phenyl)-1H-imidazol-5-yl)cyclopropyl)phenyl)propanoic acid], “B (B: 5-10° C.)”. On to `CC(C)(c1cnc(-c2cc(Oc3c(F)c(F)c4[nH]ccc4c3F)ccc2F)[nH]1)c1cccc(CCC(=O)O)c1F` [Example 157, 3-(2-fluoro-3-(2-(2-(2-fluoro-5-((4,6,7-trifluoro-1H-indol-5-yl)oxy)phenyl)-1H-imidazol-5-yl)propan-2-yl)phenyl)propanoic acid], for which the “DSLS NBD1/3D Human Stability delta-T” value is “B (B: 5-10° C.)”. For the compound `Cc1c(Oc2ccc(F)c(-c3nc(C(C)(C)c4cccc(CCC(=O)O)c4F)c[nH]3)c2)c(F)c(F)c2[nH]ccc12` [Example 158, 3-(3-(2-(2-(5-((6,7-difluoro-4-methyl-1H-indol-5-yl)oxy)-2-fluorophenyl)-1H-imidazol-4-yl)propan-2-yl)-2-fluorophenyl)propanoic acid], the “DSLS NBD1/3D Human Stability delta-T” value is given as “B (B: 5-10° C.)”.

For the compound `CC(C)(c1cnc(-c2cc(Oc3c(F)cc4[nH]ccc4c3F)ccc2F)[nH]1)c1cccc(CCC(=O)O)c1F` [Example 160, 3-(3-(2-(2-(5-((4,6-difluoro-1H-indol-5-yl)oxy)-2-fluorophenyl)-1H-imidazol-5-yl)propan-2-yl)-2-fluorophenyl)propanoic acid], the “DSLS NBD1/3D Human Stability delta-T” value is “B (B: 5-10° C.)”.
